# Patent US7105521B2, “Eugenosedin-A based pharmacoligical agents” (Syn-Tech Chem & Pharm Co., Ltd., priority 2003, dated 2006)
# “Also recorded” adds a separate entry of the source.
# Key:
# [1] = biological target: T1, 5-HT2A receptor (Rattus norvegicus, UniProt P14842); experiment: 5-HT-induced contraction of isolated rat thoracic aorta; type: cell-based; parameters: from tissue; host or cells: rat thoracic aorta rings
# Excerpt: (§1) Isolation of rat thoracic aorta. Rat thoracic aorta was removed, cleaned of adhering fat and connective tissue and cut into 3–4 mm wide transverse rings.
# [2] = biological target: T2, β2 receptors (Rattus norvegicus, UniProt P10608); experiment: Receptor binding, [3H]CGP-12177, rat lung; parameters: species or system Wistar rat
# T2 construct: with [^3H]CGP-12177 on β2 receptors in rat lung; from tissue; host or cells: Wistar rat lung membranes
# T2 sequence (P10608 whole entry): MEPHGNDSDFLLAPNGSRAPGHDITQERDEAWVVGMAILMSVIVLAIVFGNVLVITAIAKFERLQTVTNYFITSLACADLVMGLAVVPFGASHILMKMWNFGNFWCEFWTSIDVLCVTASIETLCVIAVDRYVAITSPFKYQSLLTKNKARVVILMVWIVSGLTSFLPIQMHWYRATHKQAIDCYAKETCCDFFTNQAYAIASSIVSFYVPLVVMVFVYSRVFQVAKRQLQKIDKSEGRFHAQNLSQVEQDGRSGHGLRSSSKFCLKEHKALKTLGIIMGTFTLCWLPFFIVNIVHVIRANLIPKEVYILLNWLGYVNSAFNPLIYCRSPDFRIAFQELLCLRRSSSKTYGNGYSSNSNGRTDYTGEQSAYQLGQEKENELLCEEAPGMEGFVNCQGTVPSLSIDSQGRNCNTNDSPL
# Method: (§2) Drugs and chemicals. […] Eugenosedin-A synthesized in this laboratory was solvated in 50% absolute alcohol, 10% propylene glycol and further diluted with distilled water. All of the [^3H] ligand was purchased from New England Nuclear Corp. (Boston, Mass., U.S.A.).
# (§3) Receptor binding studies. […] The homogenate was pressure filtered through muslin. Filtrate was centrifuged at 1000 g for 10 min. Supernatant was centrifuged at 10,000 g for 12 min at 4° C. The second supernatant was centrifuged at 30,000 g for 15 min at 4° C. The final pellet was re-suspended in assay buffer (75 mM Tris HCl, 25 mM MgCl2, pH 7.4). Protein content was determined by Bradford's method. Radioligand agents and membranes (200–300 μg) were incubated for 60 min at 25° C. with or without the addition of nonspecific binding agents, in a 75 mM Tris HCl buffer with 25 mM MgCl2, to make a final volume of 500 μl. In competitive-binding experiments, the competing agent was added directly to the incubation mixture. […] Membrane-bound radioligand trapped in the filters was counted in a Beckman LS6500 scintillation system (Fullerton, Calif., U.S.A) with an efficiency of 45%. In each experiment, nonspecifically bound radioligand agents were determined by incubating membrane protein. […]
# [3] = test system: Fe2+-ascorbic acid-induced lipid peroxidation; experiment: Lipid peroxidation (TBARS) in rat brain homogenate; type: biochemical; details: n=5, read-out: IC50 of inhibition of Fe2+-ascorbic acid-induced lipid peroxidation
# Method: Antioxidant and peroxyl radical scavenging activities. Rat brain homogenate was made in 0.9% saline containing 10 mg tissue/ml. The rates of membrane lipid peroxidation were measured by the formation of thiobarbituric acid (TBA)-reactive substance (TBARS). Rat brain homogenates (1 ml) were incubated at 37° C. for 5 min with 10 μl of test compound or vehicle. Lipid peroxidation was initiated by the addition of 0.1 ml of 0.25 mM FeCl2 and 1 mM ascorbic acid (Huang Y C. et al., Drug. Dev. Res., 47:77–89, 1999). After 30 min of incubation, the reaction was stopped by adding 0.1 ml of 0.2% BHT. TBA reagent was then added and the mixture was heated for 30 min in a boiling water bath. TBARS was extracted by n-butanol and measured at 532 nm. The amount of TBARS was quantified using the linear regression obtained from malondialdehyde (MDA) standards.
# [4] = biological target: T3, β1 receptors (Rattus norvegicus, UniProt P18090); experiment: Receptor binding, [3H]CGP-12177, rat ventricle; parameters: species or system Wistar rat
# T3 construct: with [^3H]CGP-12177 on β1 receptors in rat ventricle; from tissue; host or cells: Wistar rat heart (ventricle) membranes
# T3 sequence (P18090 whole entry): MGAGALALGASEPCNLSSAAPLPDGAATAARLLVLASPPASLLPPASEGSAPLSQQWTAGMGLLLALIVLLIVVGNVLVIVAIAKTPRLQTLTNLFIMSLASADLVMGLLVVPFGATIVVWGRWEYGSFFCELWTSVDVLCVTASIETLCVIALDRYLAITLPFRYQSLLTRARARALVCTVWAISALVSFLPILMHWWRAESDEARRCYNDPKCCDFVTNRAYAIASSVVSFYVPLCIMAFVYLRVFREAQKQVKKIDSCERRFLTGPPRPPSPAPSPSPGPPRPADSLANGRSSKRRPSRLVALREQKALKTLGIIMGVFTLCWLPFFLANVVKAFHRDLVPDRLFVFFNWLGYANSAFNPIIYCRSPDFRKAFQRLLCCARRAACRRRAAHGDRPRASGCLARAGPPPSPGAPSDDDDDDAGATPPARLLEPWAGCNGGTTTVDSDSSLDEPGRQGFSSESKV
# Method: as §2, §3
# [5] = test system: α2-adrenoceptor; experiment: Intra-cisternal antagonism of clonidine-induced hypotension and bradycardia; type: in vivo, rats
# Method: (§4) Intra-cisternal injections. […] Briefly, rats weighing 250–300 g were anaesthetized with pentobarbital sodium (50 mg kg^−1, i.p.) and mounted in a David-Kopf stereotaxic instrument (Yeh J L. et al., Brain. Res. Bull., 30:641–648, 1993). The calvarium was exposed and a 1 mm diameter trephine hole was drilled 1.8 mm lateral to the coronary and 1.5 mm posterior to the sagittal sutures. A cannula (0.7 mm O.D.) connected to a Hamilton syringe (RN-705, 5051) by PE-50 was advanced 4.7 mm into the brain using the electrode carrier.
# [6] = Intra-cisternal injections: mean arterial BP and HR; type: in vivo, rats
# Method: as §4
# [7] = biological target: T1, 5-HT2A receptor; experiment: Receptor binding, [3H]ketanserin, rat cortex; parameters: from tissue; host or cells: Wistar rat cortex membranes; species or system Wistar rat
# Method: as §2
# (§5) Receptor binding studies. […] The homogenate was pressure filtered through muslin. Filtrate was centrifuged at 1000 g for 10 min. Supernatant was centrifuged at 10,000 g for 12 min at 4° C. The second supernatant was centrifuged at 30,000 g for 15 min at 4° C. The final pellet was re-suspended in assay buffer (75 mM Tris HCl, 25 mM MgCl2, pH 7.4). Protein content was determined by Bradford's method. Radioligand agents and membranes (200–300 μg) were incubated for 60 min at 25° C. with or without the addition of nonspecific binding agents, in a 75 mM Tris HCl buffer with 25 mM MgCl2, to make a final volume of 500 μl. In competitive-binding experiments, the competing agent was added directly to the incubation mixture. Incubation was terminated by addition of 1 ml of ice-cold assay buffer followed by immediate filtration through Whatman GF/C glass fiber filters supported on a 12-port filter manifold (Millipore). The filters were immediately washed 3 times with 5 ml of ice-cold assay buffer and dried in an oven at 60° C. for 2 hours before adding 5 ml of Triton-toluene-based scintillation fluid. Membrane-bound radioligand trapped in the filters was counted in a Beckman LS6500 scintillation system (Fullerton, Calif., U.S.A) with an efficiency of 45%. In each experiment, nonspecifically bound radioligand agents were determined by incubating membrane protein. Specific binding for each sample was obtained by deducting this value from the total binding of radioligand agents.
# [8] = test system: α1-adrenoceptors; experiment: Noradrenaline-induced contraction of isolated rat thoracic aorta; type: cell-based; details: 10^−8, 10^−7, 10^−6 M
# Excerpt: as §1
# [9] = Peroxyl radical scavenging, B-phycoerythrin/AAPH; type: biochemical
# Method: The stoichiometric factors of the test compounds with hydrophilic peroxyl radicals were calculated by the equation as mentioned Ascorbic acid was used as a positive control.
# [10] = Survival rate after LPS; type: in vivo, ddk mice; details: pretreatment 0.5, 1, 5 mg kg^−1 i.p., LPS 60 mg kg^−1
# [11] = biological target: α1 receptors; experiment: Receptor binding, [3H]prazosin, rat cortex; parameters: species or system Wistar rat
# Method: as §2, §5
# [12] = biological target: T4, β1-adrenoceptor (Rattus norvegicus, UniProt P18090); experiment: Isoprenaline-induced positive inotropic effect in electrically stimulated rat left atria; type: cell-based; details: 10^−8, 10^−7, 10^−6 M, isolated rat left atria
# T4 construct: isoprenaline-induced concentration-response curves in isolated rat left atria; from tissue; host or cells: isolated rat left atria
# T4 sequence (P18090 whole entry): as above
# Method: Isolation of rat left atria. Rats of either sex weighing 350–500 g were sacrificed after mild anesthesia with ether, and their hearts were quickly excised. Left atria were dissected from the hearts and mounted in a 10 ml organ bath with one end fixed and the other end connected to a force displacement transducer (Grass, Model FT03). The experiments were carried out at 37° C. in a Krebs solution of the following composition (mM): NaCl 113, KCl 4.8, CaCl2 2.2, KH2PO4 1.2, MgCl2 1.2, NaHCO3 25, Dextrose 11.0; bubbled with a 95% O2+5% CO2 mixture. Atria were pre-stretched to a baseline tension of 0.5 g and equilibrated for 60 min in an aerated Krebs solution before starting experimental protocols. Atria were driven at 2-s intervals via two platinum electrodes on each side. An incubation time of 30 min was allowed for the test compound. Data were calculated as a percentage of the maximum contraction (Wu et al., 2001).
# T1 sequence (P14842 whole entry): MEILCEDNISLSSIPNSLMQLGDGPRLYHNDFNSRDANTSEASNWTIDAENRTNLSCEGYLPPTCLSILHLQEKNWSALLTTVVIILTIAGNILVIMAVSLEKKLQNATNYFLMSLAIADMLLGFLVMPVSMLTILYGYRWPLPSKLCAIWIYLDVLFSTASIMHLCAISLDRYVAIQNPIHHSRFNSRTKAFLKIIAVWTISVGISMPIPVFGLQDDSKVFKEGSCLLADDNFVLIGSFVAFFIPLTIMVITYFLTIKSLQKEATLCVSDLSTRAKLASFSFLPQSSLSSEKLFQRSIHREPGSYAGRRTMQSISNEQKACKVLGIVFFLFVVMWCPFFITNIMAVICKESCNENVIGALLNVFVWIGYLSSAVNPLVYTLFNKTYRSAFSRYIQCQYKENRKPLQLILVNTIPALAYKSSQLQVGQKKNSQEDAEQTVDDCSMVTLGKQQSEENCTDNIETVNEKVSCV
smiles,measurement,setting,value
CC=Cc1ccc(OCC(O)CN2CCN(c3ccccc3Cl)CC2)c(OC)c1 (stereo not drawn) [eugenosedin-A],Kb,[1],0.00209 µM
same,5-HT-induced contractile activities,"[1]; 10^−8, 10^−7, 10^−6 M, isolated rat thoracic aorta",concentration-dependently inhibited
same,Ki,[2],> 10 µM
same,IC50,[3],2.68 ± 0.05 µM
same,binding affinity for β1-adrenoceptors,[4],some binding affinity for β1-adrenoceptors
same,bradycardic effect of clonidine,[5]; 0.3 μmol,reduced the bradycardic effect of clonidine
same,hypotensive effect of clonidine,[5]; given 15 min before clonidine injection,antagonized the hypotensive effect of clonidine
same,clonidine-induced bradycardia,"[5]; low dose, 0.03 μmol",did not inhibit clonidine-induced bradycardia
same,increase of HR,[6]; 0.3 μmol,up to 60 bpm
same,pressor response,[6]; 0.3 μmol,up to 15 mmHg
same,effect on mean arterial BP and HR,"[6]; eugenosedin-A and trazodone 0.3, 0.03 μmol, yohimbine 0.03 μmol",increased mean arterial BP and HR
same,binding affinity for 5-HT2A receptors,[7],higher binding affinity than other β-adrenergic antagonists; also recorded: higher binding affinity than propranolol
same,order of potency on 5-HT2A receptors,[7],ketanserin >methylsergide >eugenosedin-A >5-HT >propranolol >prazosin
same,Ki,"[7]; [3H]ketanserin, rat cortex",0.0333 µM
same,cumulative noradrenaline-induced contractile activities,[8],competitively inhibited
same,"scavenging of AAPH-derived peroxyl radicals (B-phycoerythrin fluorescence, lag time)",[9],concentration-dependent decrement of fluorescence and prolongation of the lag time
same,survival rate after LPS,[10]; at 12 hrs,significantly increased
same,time of LPS-induced death,[10],36 h
same,Ki,[11],0.142 µM
same,order of α1 receptor binding potency,[11],"prazosin >ketanserin >eugenosedin-A >methylsergide, propranolol and 5-HT"
same,cumulative isoprenaline-induced positive inotropic effects,[12],concentration-dependently inhibited
